This note sets out measurements from PubChem BioAssay (NCI).

The structures appear in SMILES notation. Where “and” joins values, the source holds several entries; their conditions need not be identical. Equal values may be shown once.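 Tested at 5 concentrations; 48 h exposure; 96-well plates; endpoints linearly interpolated, else capped at highest concentration. Here, GI50 denotes the concentration required for 50% inhibition of growth. TGI marks complete inhibition of growth.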

Test systems include HS 578T breast; KM12 colon; OVCAR-5 ovarian; RPMI-8226 leukemia; SF-295 CNS; SF-539 CNS; SN12C renal; SNB-19 CNS.
Holding throughout (experiment): NCI anticancer screen, dose series, 48 h

As to `Oc1c(CN2CCCCC2)ccc2cccnc12`, the GI50 is 11.1 µM in the test with HS 578T breast; 3.91 µM in the test with KM12 colon; 5.23 µM with OVCAR-5 ovarian; 3.71 µM in the test with RPMI-8226 leukemia; 2.69 µM in the test with SF-295 CNS; 4.89 µM in the test with SF-539 CNS. Also, the GI50 in the test with SN12C renal is 4.62 µM; in the test on SNB-19 CNS it was 8.86 µM. The TGI in the test on HS 578T breast is more than 100 µM; with KM12 colon, 19.6 µM; with OVCAR-5 ovarian, 76.9 µM; in the test with RPMI-8226 leukemia, 31 µM; in the test on SF-295 CNS it was 15.4 µM; in the test on SF-539 CNS it was 39.5 µM. The TGI in the test on SN12C renal and with SNB-19 CNS was more than 100 µM throughout.

Regarding `OCC#Cc1ccccc1C#Cc1ccc(C#Cc2ccccc2C#CCO)cc1`, the GI50 with HS 578T breast is 24.3 µM; with KM12 colon it was 95.8 µM; in the test with OVCAR-5 ovarian, 30.4 µM; in the test with RPMI-8226 leukemia it was 26.4 µM; in the test on SF-295 CNS, 22.7 µM; in the test on SF-539 CNS, 34.9 µM. Besides, the GI50 in the test on SN12C renal is 31.6 µM; with SNB-19 CNS, 50 µM. For the same compound, the TGI was 58.7 µM in the test on HS 578T breast; more than 100 µM with KM12 colon; 75.9 µM in the test on OVCAR-5 ovarian; 89.3 µM with RPMI-8226 leukemia; 62.6 µM in the test with SF-295 CNS; 91.5 µM in the test on SF-539 CNS. In addition, the TGI in the test with SN12C renal and in the test with SNB-19 CNS was more than 100 µM each time.

As for `C[C@]1(c2nc3c(C(N)=O)cccc3[nH]2)CCCN1`, the GI50 in the test with HS 578T breast was more than 100 µM; in the test on KM12 colon, 61.9 µM and > 86.2 µM; in the test on OVCAR-5 ovarian it was 23.5 µM and > 75 µM; with RPMI-8226 leukemia it was > 100 µM and 61.6 µM; in the test with SF-295 CNS it was 56.1 µM and > 58.3 µM; with SF-539 CNS, 79.7 µM and > 100 µM. In addition, the GI50 in the test with SN12C renal was 79.9 µM and > 85.5 µM; in the test on SNB-19 CNS, more than 100 µM. The TGI in the test on HS 578T breast, in the test with KM12 colon, in the test on OVCAR-5 ovarian, in the test on RPMI-8226 leukemia, in the test with SF-295 CNS and in the test with SF-539 CNS was more than 100 µM throughout. The TGI with SN12C renal and with SNB-19 CNS was more than 100 µM each time.

As to `CC(C)(C)c1cc[n+](C[n+]2ccc(C(C)(C)C)cc2)cc1`, the TGI in the test with HS 578T breast, in the test on KM12 colon, with OVCAR-5 ovarian, with RPMI-8226 leukemia, in the test with SF-295 CNS and in the test on SF-539 CNS was more than 100 µM each time. In addition, the TGI in the test on SN12C renal and in the test with SNB-19 CNS was more than 100 µM in each case.

Consider `COc1cc(/C=C/C(=O)c2ccccc2O)ccc1OCCCOc1cc2c(cc1OC)C(=O)N1CCC[C@H]1C=N2`, for which the GI50 was 0.054 µM in the test on HS 578T breast; 0.0369 µM in the test with KM12 colon; 0.0354 µM in the test with OVCAR-5 ovarian; 0.0282 µM in the test on RPMI-8226 leukemia; 0.0281 µM with SF-295 CNS; 0.0359 µM with SF-539 CNS. In addition, the GI50 with SN12C renal is 0.0521 µM; with SNB-19 CNS it was 0.193 µM. The TGI is 0.284 µM in the test on HS 578T breast; 0.263 µM with KM12 colon; 1.16 µM with OVCAR-5 ovarian; 0.0758 µM with RPMI-8226 leukemia; 0.0895 µM in the test on SF-295 CNS; 0.118 µM in the test with SF-539 CNS. The same compound showed a TGI in the test with SN12C renal of 1.3 µM.

Regarding `COc1ccc(NC(=O)c2ccc(C(F)(F)F)nc2Nc2ccc(Cl)cc2C)cc1Cl`, the GI50 was 6.9 µM in the test on HS 578T breast; 6.03 µM in the test with KM12 colon; 9.62 µM in the test with OVCAR-5 ovarian; 2.07 µM with RPMI-8226 leukemia; 2.32 µM with SF-295 CNS; 9.01 µM in the test on SF-539 CNS. Besides, the values for the GI50 with SN12C renal and with SNB-19 CNS were 3.65 µM and 5.45 µM, respectively. For the same compound, the TGI in the test on HS 578T breast is 28.3 µM; with KM12 colon it was 28 µM; with OVCAR-5 ovarian, 25.4 µM; in the test with RPMI-8226 leukemia it was 4.88 µM; with SF-295 CNS, 12.7 µM; in the test with SF-539 CNS, 23.5 µM. Also, the TGI with SN12C renal stood at 14 µM; in the test on SNB-19 CNS it was 19.7 µM.

`O=C1CC=C2C3CC4N(CCC45c4ccccc4N1C25)C/C3=C\CO` (stereo not given): the TGI in the test on HS 578T breast, in the test on KM12 colon, in the test on OVCAR-5 ovarian, in the test with RPMI-8226 leukemia, in the test on SF-295 CNS and in the test on SF-539 CNS was more than 100 µM in each case. In addition, the TGI in the test on SN12C renal and in the test on SNB-19 CNS was more than 100 µM throughout.

In the case of `Oc1cccc2ccc(SSc3ccc4cccc(O)c4n3)nc12`, the TGI is more than 100 µM with HS 578T breast; 29.5 µM in the test on KM12 colon; 41.4 µM with OVCAR-5 ovarian; more than 100 µM in the test on RPMI-8226 leukemia; 33.7 µM with SF-295 CNS; 37.5 µM with SF-539 CNS. Further, the TGI in the test with SN12C renal is 37 µM; in the test with SNB-19 CNS it was more than 100 µM.

In the case of `COC(=O)[C@@H](C)C[C@H](Cc1ccccc1)NC(=O)c1csc([C@@H](C[C@H](C(C)C)N(C)C(=O)[C@@H](NC(=O)[C@H]2CCCCN2C)c2ccc(F)cc2)OC(C)=O)n1`, the TGI in the test on HS 578T breast is more than 100 µM; in the test on KM12 colon, 25 µM and > 100 µM; in the test on OVCAR-5 ovarian, 25 µM and > 100 µM; in the test on RPMI-8226 leukemia, 25 µM and 22 µM; in the test with SF-295 CNS, 25 µM and > 100 µM; in the test on SF-539 CNS it was 0.0662 µM and 0.615 µM. The TGI was 22.2 µM and 19.5 µM in the test with SN12C renal; more than 100 µM in the test on SNB-19 CNS. Besides, the GI50 in the test on RPMI-8226 leukemia was 0.00504 µM and 0.0025 µM and 0.0207 µM; in the test with SF-539 CNS, 0.0215 µM and 0.0604 µM; in the test with SNB-19 CNS it was 0.0163 µM and 0.0441 µM.

Regarding `C=C[C@@H]1CCC/C=C/[C@@H]2C[C@H](O)C[C@H]2[C@H](O)/C=C/C(=O)O1`, the GI50 was 0.477 µM with HS 578T breast; 0.35 µM in the test with KM12 colon; 0.664 µM with OVCAR-5 ovarian; 0.448 µM in the test with RPMI-8226 leukemia; 0.912 µM in the test with SF-295 CNS; 0.65 µM in the test on SF-539 CNS. Besides, the GI50 in the test on SN12C renal was 1.53 µM; with SNB-19 CNS, 1.45 µM. Besides, the TGI with HS 578T breast was more than 100 µM; in the test with KM12 colon, 1.35 µM; in the test on OVCAR-5 ovarian it was more than 100 µM; in the test on RPMI-8226 leukemia it was 3.4 µM; in the test on SF-295 CNS, more than 100 µM; in the test on SF-539 CNS, more than 100 µM. Further, the TGI with SN12C renal and in the test with SNB-19 CNS was more than 100 µM each time.
